{"source": "ChEMBL document CHEMBL3351695", "about": "“Synthesis of novel 10-hydroxycamptothecin derivatives utilizing topotecan hydrochloride as ortho-quinonemethide precursor” (Bioorg Med Chem, 2015)", "key": {"HepG2": {"tested_on": "HepG2", "experiment": "Antiproliferative activity against human HepG2 cells after 48 hrs by CCK8 assay", "assay_type": "functional, cell-based", "conditions": "HepG2, 48 h"}, "KB": {"tested_on": "KB", "experiment": "Antiproliferative activity against human KB cells after 48 hrs by CCK8 assay", "assay_type": "functional, cell-based"}, "[1]": {"experiment": "Antiproliferative activity against human HCT8 cells after 48 hrs by CCK8 assay", "assay_type": "functional, cell-based", "conditions": "HCT-8, 48 h"}, "[2]": {"experiment": "Antiproliferative activity against human SGC7901 cells after 48 hrs by CCK8 assay", "assay_type": "functional, cell-based", "conditions": "SGC-7901, 48 h"}, "[3]": {"biological_target": "T1, DNA topoisomerase 1 (Homo sapiens) (UniProt P11387)", "T1 sequence (whole entry)": "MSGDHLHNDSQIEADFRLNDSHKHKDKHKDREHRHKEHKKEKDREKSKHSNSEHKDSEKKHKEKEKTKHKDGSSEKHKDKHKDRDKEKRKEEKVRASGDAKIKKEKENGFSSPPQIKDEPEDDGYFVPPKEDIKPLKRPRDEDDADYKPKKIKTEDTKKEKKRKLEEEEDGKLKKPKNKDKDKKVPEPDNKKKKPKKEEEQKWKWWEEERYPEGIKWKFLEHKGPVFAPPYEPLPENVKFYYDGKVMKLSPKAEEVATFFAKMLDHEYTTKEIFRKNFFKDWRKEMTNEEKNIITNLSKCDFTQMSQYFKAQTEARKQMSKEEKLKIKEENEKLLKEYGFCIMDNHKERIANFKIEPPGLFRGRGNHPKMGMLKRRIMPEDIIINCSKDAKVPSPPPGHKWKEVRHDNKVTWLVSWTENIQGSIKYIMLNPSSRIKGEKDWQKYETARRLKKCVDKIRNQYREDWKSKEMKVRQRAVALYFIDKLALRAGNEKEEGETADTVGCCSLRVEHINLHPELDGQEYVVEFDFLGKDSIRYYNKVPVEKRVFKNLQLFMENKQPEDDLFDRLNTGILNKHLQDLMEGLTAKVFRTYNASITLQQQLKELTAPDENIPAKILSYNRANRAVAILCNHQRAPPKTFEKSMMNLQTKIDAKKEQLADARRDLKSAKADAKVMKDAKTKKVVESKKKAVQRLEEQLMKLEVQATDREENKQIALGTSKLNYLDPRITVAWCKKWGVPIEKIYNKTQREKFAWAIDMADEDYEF", "experiment": "Inhibition of purified Topo 1 (unknown origin)-mediated supercoiled pBR322 DNA cleavage at 12.5 uM after 15 mins by agarose gel electrophoresis"}, "SGC-7901": {"tested_on": "SGC-7901", "experiment": "Ratio of 10-hydroxycamptothecin IC50 to compound IC50 for human SGC7901 cells after 48 hrs by CCK8 assay", "assay_type": "functional"}}, "note": "Where a name gives a salt, the structure may show the parent alone. Active and inactive are the calls of the source. The rule behind the calls is not given here."}
{"compound": "CC[C@@]1(O)C(=O)OCc2c1cc1n(c2=O)Cc2cc3c(CSC(C)C)c(O)ccc3nc2-1", "values": [{"measurement": "IC50", "setting": "HepG2", "value": 0.351, "unit": "µM"}, {"measurement": "IC50", "setting": "KB", "value": 0.994, "unit": "µM"}, {"measurement": "IC50", "setting": "[1]", "value": 0.406, "unit": "µM"}, {"measurement": "IC50", "setting": "[2]", "value": 0.993, "unit": "µM"}, {"measurement": "inhibition", "setting": "[3]", "value": "Active"}]}
{"compound": "CCN(CC)CCSCc1c(O)ccc2nc3c(cc12)Cn1c-3cc2c(c1=O)COC(=O)[C@]2(O)CC", "values": [{"measurement": "IC50", "setting": "HepG2", "value": 5.09, "unit": "µM"}, {"measurement": "IC50", "setting": "KB", "value": 32.5, "unit": "µM"}, {"measurement": "IC50", "setting": "[1]", "value": 21.9, "unit": "µM"}, {"measurement": "IC50", "setting": "[2]", "value": 10.4, "unit": "µM"}]}
{"compound": "CC[C@@]1(O)C(=O)OCc2c1cc1n(c2=O)Cc2cc3c(CSC(C)(C)C)c(O)ccc3nc2-1", "values": [{"measurement": "IC50", "setting": "HepG2", "value": 0.762, "unit": "µM"}, {"measurement": "IC50", "setting": "KB", "value": 1.41, "unit": "µM"}, {"measurement": "IC50", "setting": "[1]", "value": 1.43, "unit": "µM"}, {"measurement": "IC50", "setting": "[2]", "value": 3.14, "unit": "µM"}]}
{"compound": "CCCCOC1CCc2c(ccc3nc4c(cc23)Cn2c-4cc3c(c2=O)COC(=O)[C@]3(O)CC)O1", "note": "(some centres not stated)", "values": [{"measurement": "IC50", "setting": "HepG2", "value": 0.145, "unit": "µM"}, {"measurement": "IC50", "setting": "KB", "value": 0.95, "unit": "µM"}, {"measurement": "IC50", "setting": "[1]", "value": 0.317, "unit": "µM"}, {"measurement": "IC50", "setting": "[2]", "value": 0.772, "unit": "µM"}, {"measurement": "inhibition", "setting": "[3]", "value": "inactive"}]}
{"compound": "CC[C@@]1(O)C(=O)OCc2c1cc1n(c2=O)Cc2cc3c(CSC)c(O)ccc3nc2-1", "values": [{"measurement": "IC50", "setting": "HepG2", "value": 70.4, "unit": "µM"}, {"measurement": "IC50", "setting": "KB", "value": 19.3, "unit": "µM"}, {"measurement": "IC50", "setting": "[1]", "value": 1.22, "unit": "µM"}, {"measurement": "IC50", "setting": "[2]", "value": 2.17, "unit": "µM"}]}
{"compound": "CC[C@@]1(O)C(=O)OCc2c1cc1n(c2=O)Cc2cc3c4c(ccc3nc2-1)OC(OCC(C)C)CC4", "note": "(some centres not stated)", "values": [{"measurement": "IC50", "setting": "HepG2", "value": 0.387, "unit": "µM"}, {"measurement": "IC50", "setting": "KB", "value": 1.14, "unit": "µM"}, {"measurement": "IC50", "setting": "[1]", "value": 0.471, "unit": "µM"}, {"measurement": "IC50", "setting": "[2]", "value": 0.344, "unit": "µM"}]}
{"compound": "CC[C@@]1(O)C(=O)OCc2c1cc1n(c2=O)Cc2cc3c4c(ccc3nc2-1)O[C@@H]1OCC[C@H]1C4", "values": [{"measurement": "IC50", "setting": "HepG2", "value": 0.332, "unit": "µM"}, {"measurement": "IC50", "setting": "KB", "value": 1.71, "unit": "µM"}, {"measurement": "IC50", "setting": "[1]", "value": 0.203, "unit": "µM"}, {"measurement": "IC50", "setting": "[2]", "value": 0.182, "unit": "µM"}, {"measurement": "Ratio IC50", "setting": "SGC-7901", "value": 4}, {"measurement": "inhibition", "setting": "[3]", "value": "inactive"}]}
{"compound": "CC[C@@]1(O)C(=O)OCc2c1cc1n(c2=O)Cc2cc3c4c(ccc3nc2-1)O[C@@H]1OCCC[C@H]1C4", "values": [{"measurement": "IC50", "setting": "HepG2", "value": 0.266, "unit": "µM"}, {"measurement": "IC50", "setting": "KB", "value": 1.23, "unit": "µM"}, {"measurement": "IC50", "setting": "[1]", "value": 0.204, "unit": "µM"}, {"measurement": "IC50", "setting": "[2]", "value": 0.255, "unit": "µM"}, {"measurement": "Ratio IC50", "setting": "SGC-7901", "value": 4}]}
{"compound": "CC[C@@]1(O)C(=O)OCc2c1cc1n(c2=O)Cc2cc3c(CSCC(=O)OC)c(O)ccc3nc2-1", "values": [{"measurement": "IC50", "setting": "HepG2", "value": 3.2, "unit": "µM"}, {"measurement": "IC50", "setting": "KB", "value": 12.9, "unit": "µM"}, {"measurement": "IC50", "setting": "[1]", "value": 3.09, "unit": "µM"}, {"measurement": "IC50", "setting": "[2]", "value": 9.02, "unit": "µM"}]}
{"compound": "CCCSCc1c(O)ccc2nc3c(cc12)Cn1c-3cc2c(c1=O)COC(=O)[C@]2(O)CC", "values": [{"measurement": "IC50", "setting": "HepG2", "value": 0.734, "unit": "µM"}, {"measurement": "IC50", "setting": "KB", "value": 2.17, "unit": "µM"}, {"measurement": "IC50", "setting": "[1]", "value": 0.746, "unit": "µM"}, {"measurement": "IC50", "setting": "[2]", "value": 2.82, "unit": "µM"}]}
{"compound": "CC[C@@]1(O)C(=O)OCc2c1cc1n(c2=O)Cc2cc3c(CSCCC(=O)O)c(O)ccc3nc2-1", "values": [{"measurement": "IC50", "setting": "HepG2", "value": 89, "unit": "µM"}, {"measurement": "IC50", "setting": "KB", "value": "> 100", "unit": "µM"}, {"measurement": "IC50", "setting": "[1]", "value": 30.3, "unit": "µM"}, {"measurement": "IC50", "setting": "[2]", "value": 40.8, "unit": "µM"}, {"measurement": "inhibition", "setting": "[3]", "value": "inactive"}]}
{"compound": "CCOC1CCc2c(ccc3nc4c(cc23)Cn2c-4cc3c(c2=O)COC(=O)[C@]3(O)CC)O1", "note": "(some centres not stated)", "values": [{"measurement": "IC50", "setting": "HepG2", "value": 0.265, "unit": "µM"}, {"measurement": "IC50", "setting": "KB", "value": 1.48, "unit": "µM"}, {"measurement": "IC50", "setting": "[1]", "value": 0.401, "unit": "µM"}, {"measurement": "IC50", "setting": "[2]", "value": 0.413, "unit": "µM"}]}
{"compound": "CC[C@@]1(O)C(=O)OCc2c1cc1n(c2=O)Cc2cc3cc(O)ccc3nc2-1", "note": "[HYDROXYCAMPTOTHECIN]", "values": [{"measurement": "IC50", "setting": "HepG2", "value": 0.499, "unit": "µM"}, {"measurement": "IC50", "setting": "KB", "value": 0.128, "unit": "µM"}, {"measurement": "IC50", "setting": "[1]", "value": 0.181, "unit": "µM"}, {"measurement": "IC50", "setting": "[2]", "value": 0.835, "unit": "µM"}, {"measurement": "inhibition", "setting": "[3]", "value": "Active"}]}
{"compound": "CC[C@@]1(O)C(=O)OCc2c1cc1n(c2=O)Cc2cc3c(CN(C)C)c(O)ccc3nc2-1", "note": "[TOPOTECAN HYDROCHLORIDE]", "values": [{"measurement": "IC50", "setting": "HepG2", "value": 4.21, "unit": "µM"}, {"measurement": "IC50", "setting": "KB", "value": 2.28, "unit": "µM"}, {"measurement": "IC50", "setting": "[1]", "value": 1.88, "unit": "µM"}, {"measurement": "IC50", "setting": "[2]", "value": 2.29, "unit": "µM"}]}
{"compound": "CC[C@@]1(O)C(=O)OCc2c1cc1n(c2=O)Cc2cc3c4c(ccc3nc2-1)OC(O)CC4", "note": "(some centres not stated)", "values": [{"measurement": "IC50", "setting": "HepG2", "value": 0.184, "unit": "µM"}, {"measurement": "IC50", "setting": "KB", "value": 0.777, "unit": "µM"}, {"measurement": "IC50", "setting": "[1]", "value": 0.567, "unit": "µM"}, {"measurement": "IC50", "setting": "[2]", "value": 0.536, "unit": "µM"}, {"measurement": "inhibition", "setting": "[3]", "value": "Active"}]}
{"compound": "CCSCc1c(O)ccc2nc3c(cc12)Cn1c-3cc2c(c1=O)COC(=O)[C@]2(O)CC", "values": [{"measurement": "IC50", "setting": "HepG2", "value": 0.595, "unit": "µM"}, {"measurement": "IC50", "setting": "KB", "value": 2.19, "unit": "µM"}, {"measurement": "IC50", "setting": "[1]", "value": 0.282, "unit": "µM"}, {"measurement": "IC50", "setting": "[2]", "value": 0.549, "unit": "µM"}]}
